Patent US20100022404A1, “Gene/protein marker for prediction or diagnosis of pharmacological efficacy of aurora a inhibitor” (priority 2006, published 2010)

Legend:
[1] = tested on: histone H3 (Ser28) phosphorylation; test: Western blotting of histone H3 Ser28 and Ser10 phosphorylation in asynchronous HeLa S3 cells (Example 8); assay type: cell-based, human; settings: concentration series, compared with phospho-Aurora B (Thr232), FIG. 26
[2] = tested on: Aurora B (Thr232) phosphorylation; test: Western blotting of total Aurora B and phospho-Aurora B (Thr232) in synchronized HeLa S3 cells with Aurora inhibitors (Example 7); assay type: cell-based, human; settings: 300 nM added 4 hours after release, sampling 0 to 24 hours, FIG. 24
Experimental: First, HeLa S3 cells were synchronized at the GI/S boundary by the above-mentioned double-thymidine block, and after 4 hours from the start of release, a control (DMSO, final 0.5%), an Aurora A-selective inhibitor 6-((4-(2,3-difluorobenzoyl)piperazin-1-yl)methyl)-N-thiazol-2-ylpyridin-2-amine (in FIG. 24, this is shown as “Aurora A Inhibitor 1”), an Aurora B inhibitor ZM477439 (J. Cell. Biol., Vol. 161, p. 267, 2003) or a pan-Aurora inhibitor VX-680 was added in an amount of 300 nM, followed by sampling at regular intervals for 0 to 24 hours. Next, the samples were analyzed for total Aurora B and phospho-Aurora B (Thr232) expression by western blotting.

[3] = tested on: PD marker candidate genes (BIRC5, KNTC2, PRC1, TACC3, DLG7) in HeLa-S3 cells; test: Real-time PCR of PD marker candidate genes after treatment with Aurora A inhibitor (Example 2); assay type: cell-based, human; settings: 24 hours, FIGS. 6 to 10
Experimental: A predetermined concentration of 6-((4-(2,3-difluorobenzoyl)piperazin-1-yl)methyl)-N-thiazol-2-ylpyridin-2-amine was acted on HeLa-S3 cells; and after 24 hours, the cells were collected, the total RNA was isolated and then converted into cDNA, and this was processed for real-time PCR in the same manner as in Example 1.

[4] = tested on: PD marker candidate genes in HeLa-luc cancer graft; test: Expression change of PD marker candidate genes in planted cancer, continuous administration to rat (Example 3); assay type: in vivo, F344/N Jcl-rnu female nude rat; settings: nude rat with HeLa-luc graft, intravenous drip infusion for 48 hours
Experimental: (§1) First, a cervical cancer strain HeLa-luc cells were subcutaneously transplanted to the back of an F344/N Jcl-rnu female nude rat. After 1 week, a […] cancer nude rat was subjected to femoral vein cannulation operation; and using a syringe pump, an Aurora A inhibitor 6-((4-(2-fluoro-3-(trifluoromethyl)benzoyl)piperazin-1-yl)methyl)-N-1H-pyrazol-3-ylpyrazin-2-amine was administered by intravenous drip infusion for 48 hours. After the administration, the collected cancer graft and the skin specimen were frozen and stored in liquid nitrogen.
Next, the total RNA was isolated from the collected cancer graft and formed into cDNA, which was checked for the expression change of the PD marker candidate genes. In addition to 5 genes identified in culture cells, Aurora A (AurA) and Aurora B (AurB) were also investigated as candidate genes. The primer probe sets for Aurora A and B are as follows. For every primer and probe, a human gene was used as the template.

[5] = tested on: Aurora B (Thr232) phosphorylation; test: Western blotting of phospho-Aurora B (Thr232), Aurora B, Survivin, Plk1 in asynchronous HeLa S3 cells with Aurora A-selective inhibitor (Example 6); assay type: cell-based, human; settings: for ratio of phospho-Aurora B/Aurora B: based on the compound concentration 0 nM of 1
Experimental: (§2) First, asynchronously-cultured HeLa S3 cells were planted in an amount of 1×10^6 cells, and incubated overnight at 37° C. in 5% CO2. At 10:00 on the next day, the medium was exchanged with a medium to which 6-((4-(3-chloro-2-fluorobenzoyl)piperazin-1-yl)methyl)-N-thiazol-2-ylpyridin-2-amine had been added to be a final concentration of 0, 30, 100, 300, 1000, 3000, 10000, 30000 nM, and then, after 8 hours and 24 hours, the cells were peeled with trypsin and collected. A half of the cells was analyzed by western blotting; ¼ of the cells were analyzed for cell cycle through flow cytometry; and the last remaining ones were analyzed for phosphorylation of histone H3 (Ser10). The cell samples processed in the same manner were analyzed for expression profiling through TaqMan-PCR.

[6] = tested on: histone H3 (Ser10) phosphorylation; test: Histone H3 (Ser10) phosphorylation by flow cytometry in HeLa S3 cells (Example 6); assay type: cell-based, human; settings: FIG. 23
Experimental: as §2

HeLa S3 cells = test: Cell cycle analysis by flow cytometry in asynchronous HeLa S3 cells with Aurora A-selective inhibitor (Example 6); assay type: cell-based, human; settings: 8 hours and 24 hours, FIGS. 20, 21
Experimental: as §2

[7] = tested on: PD marker candidate genes in rat skin; test: Expression change of PD marker candidate genes in skin, continuous administration to rat (Example 4); assay type: in vivo; settings: same rat skin as Example 3 (intravenous drip infusion for 48 hours); FIGS. 13 to 16
Experimental: as §1
The same rat skin as that used in Example 3 was checked for the expression change of PD marker candidate genes through real-time PCR. The primers of the candidate genes in the rat are as shown below. For every primer and probe, a rat gene was used as the template. The probe was modified with FAM/TAMRA.

[8] = HeLa S3 cells, 8 hours and 24 hours
[9] = HeLa S3 cells, expression admitted in the background with no compound addition

For O=C(c1cccc(F)c1F)N1CCN(Cc2cccc(Nc3nccs3)n2)CC1 [6-((4-(2,3-difluorobenzoyl)piperazin-1-yl)methyl)-N-thiazol-2-ylpyridin-2-amine], the “phospho-histone H3 (Ser28) induction by inhibitor” value [1] was “concentration-dependent induction”, the “Aurora B expression” value [2] was “expressed Aurora B to a high level even after 10 hours” and the “phospho-Aurora B (Thr232) expression” value [2] was “remarkably increased”. For the same compound, the “expression level of the PD marker candidate genes (BIRC5, KNTC2, PRC1, TACC3, DLG7)” value [3] was “increased dependently on the Aurora A inhibitor concentration”.

With O=C(c1cccc(C(F)(F)F)c1F)N1CCN(Cc2cncc(Nc3cc[nH]n3)n2)CC1 [6-((4-(2-fluoro-3-(trifluoromethyl)benzoyl)piperazin-1-yl)methyl)-N-1H-pyrazol-3-ylpyrazin-2-amine] the “expression of BIRC5 in cancer graft” value [4] was “significantly increased”, the “expression of DLG7 in cancer graft” value [4] was “significantly increased” and the “peak of the expression change (dose)” value [4] was 1 mpk. The “expression level of the PD marker candidate genes in cancer graft” value ([4]; FIGS. 11 and 12) was “increased”.

With O=C(c1cccc(Cl)c1F)N1CCN(Cc2cccc(Nc3nccs3)n2)CC1 [6-((4-(3-chloro-2-fluorobenzoyl)piperazin-1-yl)methyl)-N-thiazol-2-ylpyridin-2-amine] the “concentration range in which Aurora B inhibition begins (phosphorylation of Aurora B again inhibited)” value ([5]; HeLa S3 cells) was > 30 µM, the “expression of phospho-Aurora B (Thr232)” value ([5]; HeLa S3 cells, 0-30000 nM, exposure 8 hours and 24 hours, FIG. 22) was “increased dependently on the administration concentration” and the “concentration of phosphorylation depression of Aurora B (considered Aurora B inhibition)” value [5, 8] was ≥ 30 µM. The “expression level of Aurora B” value [5, 8] was “did not change so much”, the “expression induction window of Plk1” value [5, 9] was “at most 3.5 times” and the “expression induction window of Survivin” value [5, 9] was “at most 3.5 times”. For the same compound, the “ratio of phospho-Aurora B/Aurora B” value ([5]; exposure period of 8 hours) was “at most 16 times”, the “ratio of phospho-Aurora B/Aurora B” value ([5]; exposure period of 24 hours) was “up to 10 times” and the “Histone H3 (Ser10) phosphorylation in flow cytometry” value [6] was “could not take a large window”. The “concentration from which the proportion of the M-stage began to increase” value (HeLa S3 cells) was “around 300 nM” and the “concentration up to which the M-stage was kept” value (HeLa S3 cells) was “around 10 μM”.

With Cc1cc(Nc2cc(N3CCN(C)CC3)nc(Sc3ccc(NC(=O)C4CC4)cc3)n2)n[nH]1 [VX-680] the “phospho-histone H3 (Ser28) induction by inhibitor” value [1] was “did not have a phosphorylation band at all”, the “Aurora B expression” value [2] was “detected on the same level as that in the control” and the “phospho-Aurora B (Thr232) expression” value [2] was “no phospho-Aurora B was detected at all”.

COc1cc2c(Nc3ccc(NC(=O)c4ccccc4)cc3)ncnc2cc1OCCCN1CCOCC1 [ZM477439] was tested, and the “Aurora B expression” value [2] was “detected on the same level as that in the control” and the “phospho-Aurora B (Thr232) expression” value [2] was “no phospho-Aurora B was detected at all”.

O=C(O)[C@]1(Cc2cccc(Nc3nccs3)n2)CC[C@@H](Oc2cccc(Cl)c2F)CC1 [trans-4-(3-chloro-2-fluorophenoxy)-1-((6-(1,3-thiazol-2-ylamino)pyridin-2-yl)methyl)cyclohexanecarboxylic acid] was tested, and the “expression level of the candidate genes in rat skin” value [7] was “significantly increased”.
